Source: US20200360331A1, “COMPOSITIONS COMPRISING 15-HEPE AND/OR 15-HETrE AND METHODS OF TREATING OR PREVENTING CARDIOMETABOLIC DISEASE, METABOLIC SYNDROME, AND/OR RELATED DISEASES” (Afimmune Limited, priority 2019, published 2020)
Entries after “also recorded” stand apart in the source; their conditions may differ.

Assays:
NAFLD patients [1] = assay: Phase IIa NAFLD study: metabolic parameters and insulin resistance; format: in vivo, human
Protocol: The study was planned to include 96 evaluable patients with 32 patients randomized per treatment group.
HOMA-IR/Adipo-IR: HOMA-IR/Adipo-IR levels are a method of measuring insulin resistance. HOMA-IR is calculated by multiplying fasting plasma insulin (FPI) by fasting plasma glucose (FPG), then dividing by the constant 405. Adipo-IR is calculated by multiplying fasting non-esterified fatty acids (NEFA)×fasting insulin. Blood samples were taken to assess HOMA-IR and Adipo-IR at Visit 2/Baseline, Visit 3/Week 2, Visit 4/Week 4, Visit 6/Week 8, Visit 8/Week 12, Visit 10/Week16 and Follow up Visit 11/Week 20. All subjects were required to have been fasted for a minimum of 8 hours prior to blood sampling. If subjects had not fasted for a minimum of 8 hours, the duration of fasting time was recorded, and subjects encouraged to fast appropriately for the next clinical visit.
(§1) Exploratory analysis: The exploratory analysis included analysis of lipid and metabolic parameters including total cholesterol, triglycerides, very low-density lipoprotein cholesterol (VLDL-C), low density lipoprotein cholesterol (LDL-C), high density lipoprotein cholesterol (HDL-C), non-high-density lipoprotein cholesterol (non-HDL-C), remnant-like particle cholesterol (RLP-C), fasting glucose, insulin, free fatty acids and hemoglobin A1C (HbA1C). Additional exploratory analysis included high throughput lipidomics and proteomics.

NAFLD patients [2] = assay: Phase IIa NAFLD study: proteomics of blood samples; format: in vivo, human
Excerpt: as §1, with “The study was planned to include 96 evaluable patients with 32 patients randomized per treatment group. […] Exploratory” for “Exploratory”

UUO mice [3] = assay: UUO study: kidney hydroxyproline content; format: in vivo, C57BL/6 mice
Protocol: (§2) UUO Surgery: On day 0 of the study, UUO surgery was performed on mice under pentobarbital sodium anesthesia. The mouse's hair was first shaved and then abdomen cut open to exteriorize the mouse's left ureter. The ureter was ligated 4-0 nylon sutures at two points. The mouse's peritoneum and skin were then closed with sutures, and the mouse transferred to a clean cage until recovered from the anesthesia. Sham operated mice had their left ureter exposed but not ligated.
Measurement of Kidney Biochemistry: To quantify kidney hydroxyproline content, frozen left kidney samples were processed by an alkaline-acid hydrolysis method as follows: kidney samples were dissolved in 2 normal (N) sodium hydroxide (NaOH) at 65° C. and autoclaved at 121° C. for 20 minutes. The lysed samples (400 μL) were acid-hydrolyzed with 400 μL of 6N hydrochloride acid (HCl) at 121° C. for 20 minutes, and neutralized with 400 μL of 4N NaOH containing 10 mg/mL of activated carbon. An AC buffer (e.g., 2.2M acetic acid/0.48M citric acid, 400 μL) was added to the samples, followed by centrifugation to collect the supernatant. A standard curve of hydroxyproline was constructed with serial dilutions of trans-4-hydroxy-L-proline (Sigma-Aldrich, USA) starting at 16 μg/mL. The prepared samples and standards (e.g., each 400 μL) were mixed with 400 μL chloramine T solution (Wako Pure Chemical Industries, Japan) and incubated for 25 minutes at room temperature. The samples were then mixed with Ehrlich's solution (e.g., 400 μL) and heated at 65° C. for 20 minutes to develop the color. After samples were cooled on ice and centrifuged to remove precipitates, the optical density of each supernatant was measured at 560 nanometers (nm). The concentrations of hydroxyproline were calculated from the hydroxyproline standard curve. Protein concentrations of kidney samples were determined using a bicinchoninic (BCA) protein assay kit (Thermo Fisher Scientific, USA) and used to normalize the calculated hydroxyproline values. Kidney hydroxyproline contents were expressed as microgram (μg) per mg protein.

UUO mice [4] = assay: UUO study: Sirius red staining of kidney sections, fibrosis area; format: in vivo, C57BL/6 mice; settings: for fibrosis area compared with the Vehicle group: Mann-Whitney U test (p<0.1); for Sirius red-positive area / Sirius red-positive area (%) _Median: kidney
Protocol: as §2
Histopathological analysis: To visualize collagen deposition, kidney sections were stained using picro-Sirius red solution (Waldeck, Germany). For quantification of interstitial fibrosis area, bright field images in the corticomedullary region were captured using a digital camera (e.g., DFC295; Leica Microsystems, Germany) at 200-fold magnification, and the positive areas in 5 fields/section were measured using ImageJ software (National Institute of Health, USA).

[5] = NAFLD patients, 1 g or 2 g per day
[6] = baseline to Week 16, 1 g or 2 g per day vs placebo
[7] = 50 mg/kg PO QD Day 0-13, Day 14
[8] = 500 mg/kg PO QD Day 0-13, Day 14

Compound: CC/C=C\CC(O)/C=C/C=C\C/C=C\C/C=C\CCCC(=O)O (stereo not drawn) [DS102, 15-hydroxy-eicosa-5Z,8Z,11Z,13E,17Z-pentaenoic acid]
- insulin sensitivity and glycemic control (NAFLD patients [1]; [5]): improvement
- markers of metabolic overload (NAFLD patients [1]; [5]): statistically significant reduction
- insulin resistance indices (HOMA-IR and adipo-IR levels) (NAFLD patients [1]; Week 16, 1 g or 2 g per day vs placebo): reduction in HOMA-IR and adipo-IR levels
- insulin resistance indices (HOMA-IR and adipo-IR levels) (NAFLD patients [1]; Week 16, 2 g, Per Protocol Set (PPS)): significant improvements
- HbA1c levels, glycemic control (NAFLD patients [1]; [6]): clinically significant improvements
- insulin, glucose, and free fatty acid levels (NAFLD patients [1]; [6]): reduction
- TR protein (NAFLD patients [2]; 1 g): significant reductions
- NASH drug development targets CCR2/5 signaling, Galectin3, AOC3 (NAFLD patients [2]; 2 g): decreased
- number of markers (inflammation, fibrosis, lipid metabolism, apoptosis, chemotaxis) significantly downregulated (NAFLD patients [2]; 2 g, panel of greater than 350 protein biomarkers): over 150
- inflammatory and pro-fibrotic proteins (protein expression) (NAFLD patients [2]; 2 g, Bonferroni: PAI-1, TIMP-1, DPP4, TLT2, CCL16, MCP-1, SAA4, PI3/Elafin, TR, LILRB1, TNRSF11A, linear model: TLT2, AOC3, PRSS2): decreased
- expression of multiple circulating chemokines (NAFLD patients [2]; NAFLD patients): decreased
- expression of multiple proteins associated with increased cardiovascular risk (NAFLD patients [2]; NAFLD patients): decreased
- expression of multiple tumor necrosis factor receptor superfamily members (NAFLD patients [2]; NAFLD patients): decreased
- expression of multiple vascular adhesion molecules (NAFLD patients [2]; NAFLD patients): decreased
- kidney hydroxyproline contents compared with the Vehicle group (UUO mice [3]; 50 mg/kg): significant decrease
- Kidney hydroxyproline (UUO mice [3]; [7]): 8.47 ± 2.08 μg/mg total protein
- kidney hydroxyproline contents compared with the Vehicle group (UUO mice [3]; 500 mg/kg): significant decreases
- Kidney hydroxyproline (UUO mice [3]; [8]): 8.59 ± 1.99 μg/mg total protein
- fibrosis area compared with the Vehicle group (UUO mice [4]; 50 mg/kg): tended to decrease; also recorded: reduction trend
- fibrosis area compared with the Vehicle group (UUO mice [4]; 500 mg/kg): tended to decrease; also recorded: reduction trend
- Sirius red-positive area (UUO mice [4]; [7]): 5.01 ± 3.11%
- Sirius red-positive area (%) _Median (UUO mice [4]; 50 mg/kg PO QD Day 0-13, Day 14, median): 4.19 ± 3.33%
- Sirius red-positive area (UUO mice [4]; [8]): 4.01 ± 1.92%
- Sirius red-positive area (%) _Median (UUO mice [4]; 500 mg/kg PO QD Day 0-13, Day 14, median): 3.08 ± 1.16%
